pIC50: −log10 of the molar value. Where two headings read alike, the source gives them in different places.
What was measured:
[1] = in human; cited from earlier work
PDE-5A enzyme = PDE-5A enzyme (Homo sapiens (Human), UniProt O76074); assay: Caliper Mobility-Shift PDE-5A Assay; assay type: biochemical; conditions: Table 1; Avanafil value is the control
Protocol: Experiment 1: Measurement of Enzymatic Activity In Vitro
PDE-5A enzyme: humanized PDE-5 enzyme, SignalChem, Cat#93-31G-20.
Method: enzyme assay, Caliper Mobility-Shift PDE-5A Assay:
The test compound was accurately weighed, dissolved in DMSO, mixed thoroughly and formulated into 10 mM.
The maximum final concentration of the compound was 10 μM. The plate was incubated at 30° C. for 1 h, and 20 μL of 70 μM EDTA was then added to stop the reaction. 26 μL of solution of each well was transferred to a 384-well plate. The conversion was read on a EZ reader II. The inhibition rate was calculated by the formula below, and used to calculate IC50 by Prism 5.0 Inhibition rate=[Conversion (ZPE)−Conversion (sample)]×100/[Conversion (ZPE)−Conversion (HPE)]
Note: HPE: control without enzyme; ZPE: control without a test compound

[2] = target: PDE-5 enzyme (human blood platelets) (Homo sapiens (Human), UniProt O76074); assay: PDE-5 enzyme assay, [3H]cGMP; assay type: biochemical; conditions: for pIC50: Table 2, human blood platelet enzyme, read-out: IC50 on PDE-5; for IC50: Table 4-1, read-out: PDE-5 (IC50 nM)
bovine retinal PDE-6 [3] = target: bovine retinal PDE-6 (Bos taurus (Bovine), UniProt P11541+P23439); assay: PDE-6 enzyme assay, [3H]cGMP; assay type: biochemical; conditions: for IC50: Table 4-1, read-out: PDE-6 (IC50 nM); for pIC50: Table 3, read-out: IC50 on PDE-6
Protocol: (§1) Experiment 3: Measurement of Enzyme Activity on PDE-6 Enzyme In Vitro
(§2) Source of enzyme: PDE-6, bovine retinal PDE-6
(§3) Method: The test compound or solvent was incubated at 25° C. for 15 min with enzyme solution (0.2 μg/mL) in Tris-HCl buffer of pH 7.5. 100 μM cGMP and 0.03 μM [^3H] cGMP were then added to activate the reaction. The mixture was incubated for 20 min. The reaction was stopped at 100° C. By addition of snake venom nucleotidase, the product [^3H] GMP was converted into [^3H] Guanosine, which was separated with AG1-X2 resin. The amount of [^3H] Guanosine was measured.

bovine retinal PDE-6 [4] = assay: PDE-6 enzyme assay, [3H]cGMP; assay type: biochemical; conditions: for selectivity on PDE-5 enzyme versus PDE-6 (in words): selectivity >70 called high; for Selectivity (PDE-6/PDE-5): IC50 for PDE-6/IC50 for PDE-5
Protocol: as §1, §2, §3

[5] = tested on: length of New Zealand rabbit's penis; assay: Pharmacological activity in vivo (oral administration, 70 mg/kg, with SNP), rabbit penis length; design: species or system New Zealand rabbits; conditions: Table 8; oral 70 mg/kg; SNP 0.2 mg/kg iv 60 min after; 0-180 min
Protocol: Experiment 7: Assay of Pharmacological Activity In Vivo (Oral Administration)
After accommodating with the environment, the New Zealand rabbits were grabbed everyday. When the rabbits were accustomed to the repeated grabbing, drug administration was began. The animals were randomly divided into groups by weight, with 6 rabbits of each group. […] The corresponding test compounds were orally administrated to animals of each group. The dosage was 70 mg/kg, and the administration volume was 1 mL/kg. SNP (0.2 mg/kg, 0.5 mL/kg) was injected into the auricular veins of rabbits 60 min after the administration of the test compounds. The length of the rabbit's penis was measured with a digital caliper before and 10, 15, 30, 50, 60, 65, 70, 75, 90, 110, 120 and 180 min after the administration. Touch of the rabbit's penis by the caliper was avoided during the measurements.

hERG channel = hERG channel (Homo sapiens (Human), UniProt Q12809); assay: hERG potassium channel whole-cell patch clamp on CHO-K1 cell line
Description: Experiment 8: Detection of Inhibitory Effect of the Compounds of the Present Invention on hERG Potassium Channel by the Patch Clamp Method
Rapidly activated human delayed rectifying outward potassium current (IKr) is mainly mediated by hERG ion channel and is involved in repolarization of human cardiac muscle cell. Clinically, blocking of the current by a drug is the main cause of QT interval prolongation syndrome, acute arrhythmia and even sudden death. The main purpose of the experiment is to test the blocking effect of the compounds of the present invention on hERG channel, and to determine the half maximal inhibitory concentration (IC50) of the compounds.
The experiment mainly included: (1) recording hERG current by patch clamp technique on CHO-K1 cell line which stably expressed hERG channel; (2) calculating the Inhibition rate of each concentration according to hERG tail current; (3) testing each compound at 5 concentrations to calculate IC50; (4) testing 2 cells at each concentration; (5) a positive control.
The structures and synthesis of Compound 88 (WO-88) and Compound 93 (WO-93) as disclosed in WO200119802A were described in Example 55 and Example 56.
Drug for positive control: Amitriptyline hydrochloride (Sigma-Aldrich, an international standard blocker for hERG channel)
Pippette Solution (in mM): KCl 120, KOH 31.25, CaCl2 5.374, MgCl2 1.75, Ethylene glycol-bis(β-aminoethyl ether)-N,N,N′,N′-tetraacetic acid (EGTA) 10, HEPES 10, Na2-ATP 4, adjusted to a pH of 7.2 with 1N potassium hydroxide; adjusted to an osmotic pressure of 280-290 mOsm; preserved at −20° C. after filtration.
Preparation of compounds: Some of the compounds of the present invention and Amitriptyline hydrochloride as the positive control drug were separately dissolved in 100% DMSO (Merck, 61850125001730), then prepared into stock solutions of 30 mM. Before the experiment, the above stock solutions were diluted with DMSO to a concentration of 1000-fold of the experimental concentration. Then the diluted solutions were further diluted with extracellular solution by 1:1000 to the required experimental concentration. The final concentration of DMSO in the extracellular solution was kept as 0.1%.
Stable cell line CHO-hERG was purchased from AVIVA Company. The hERG current on the cell line was recorded. For the purpose of quality control, the smallest seal resistance was no less than 500 MΩ, and the hERG current was no less than 0.4 nA.
The hERG current was recorded by a whole-cell patch clamp technique. Cell suspension was added into a 35-mm culture dish. The culture dish was placed on the objective table of an inverted microscope. Upon cell attachment, perfusion was conducted with the extracellular solution at a flow rate of 1-2 mL/min.
Glass microelectrode with the pipette tip resistance of 2-5 MΩ was controlled by a microelectrode puller via a two-step process. After the whole-cell record was set up, the clamp potential was kept at −80 mV. The cell was depolarized to +60 mV by applying a voltage stimulus, and then repolarized to −50 mV to obtain the hERG tail current. Recordation was conducted after the current was stable. The extracellular perfusion was started from the lowest concentration, with 5-10 min for each concentration until the current was stable, and then conducted with the next concentration.
Stimulus payment and signal collection were performed by A/D-D/A conversion using Digidata 1440 (Molecular Devices) and pCLAMP software (Version 10.2, Molecular Devices). Signal amplification was performed on a patch clamp amplifier (Multiclamp 700B, Molecular Devices), with a filter of 1 KHz. Further data analysis and curve fitting were conducted by Clampfit (version 10.2, Molecular Devices) and Prism. The data were presented as mean value±standard deviation.
In the process of data analysis, the peak value and the baseline of the tail current were corrected when determining the blocking effect on hERG.

[6] = Pharmacokinetics (PK) in SD rats; assay type: in vivo; conditions: rat; for AUC(0-inf) / Cmax / Tmax / half-life / bioavailability: SD, plasma; for bioavailability: read-out: F % (absolute bioavailability)
[7] = human, CHO-K1 cells stably expressing hERG channel, pH 7.4
[8] = po, intragastric administration, 5 mg/kg

Sequence of bovine retinal PDE-6 (Bos taurus (Bovine), UniProt P11541+P23439) (P11541 whole entry, looked up): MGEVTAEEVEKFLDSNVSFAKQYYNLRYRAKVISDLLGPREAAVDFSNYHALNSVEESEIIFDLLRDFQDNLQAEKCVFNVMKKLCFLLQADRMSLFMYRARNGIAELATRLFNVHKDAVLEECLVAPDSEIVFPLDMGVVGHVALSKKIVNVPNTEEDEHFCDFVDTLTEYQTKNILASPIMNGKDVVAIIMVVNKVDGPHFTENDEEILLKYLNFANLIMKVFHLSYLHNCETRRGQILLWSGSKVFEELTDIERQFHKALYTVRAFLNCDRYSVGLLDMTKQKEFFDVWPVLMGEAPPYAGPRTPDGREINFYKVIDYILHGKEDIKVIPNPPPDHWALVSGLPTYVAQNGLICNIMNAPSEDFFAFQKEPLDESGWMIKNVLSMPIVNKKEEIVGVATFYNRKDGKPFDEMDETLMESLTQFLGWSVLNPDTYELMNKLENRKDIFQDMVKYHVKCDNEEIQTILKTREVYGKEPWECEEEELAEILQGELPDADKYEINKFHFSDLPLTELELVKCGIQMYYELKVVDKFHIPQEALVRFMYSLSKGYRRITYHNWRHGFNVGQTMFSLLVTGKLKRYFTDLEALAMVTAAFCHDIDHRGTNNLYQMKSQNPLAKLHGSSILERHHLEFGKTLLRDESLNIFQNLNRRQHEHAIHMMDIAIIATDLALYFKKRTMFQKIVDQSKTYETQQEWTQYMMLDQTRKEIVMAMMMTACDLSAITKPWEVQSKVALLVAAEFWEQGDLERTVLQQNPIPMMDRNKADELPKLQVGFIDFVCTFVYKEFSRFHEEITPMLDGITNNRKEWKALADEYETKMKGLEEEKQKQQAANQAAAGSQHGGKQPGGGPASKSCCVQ
Sequence of bovine retinal PDE-6 (Bos taurus (Bovine), UniProt P11541+P23439) (P23439 whole entry, looked up): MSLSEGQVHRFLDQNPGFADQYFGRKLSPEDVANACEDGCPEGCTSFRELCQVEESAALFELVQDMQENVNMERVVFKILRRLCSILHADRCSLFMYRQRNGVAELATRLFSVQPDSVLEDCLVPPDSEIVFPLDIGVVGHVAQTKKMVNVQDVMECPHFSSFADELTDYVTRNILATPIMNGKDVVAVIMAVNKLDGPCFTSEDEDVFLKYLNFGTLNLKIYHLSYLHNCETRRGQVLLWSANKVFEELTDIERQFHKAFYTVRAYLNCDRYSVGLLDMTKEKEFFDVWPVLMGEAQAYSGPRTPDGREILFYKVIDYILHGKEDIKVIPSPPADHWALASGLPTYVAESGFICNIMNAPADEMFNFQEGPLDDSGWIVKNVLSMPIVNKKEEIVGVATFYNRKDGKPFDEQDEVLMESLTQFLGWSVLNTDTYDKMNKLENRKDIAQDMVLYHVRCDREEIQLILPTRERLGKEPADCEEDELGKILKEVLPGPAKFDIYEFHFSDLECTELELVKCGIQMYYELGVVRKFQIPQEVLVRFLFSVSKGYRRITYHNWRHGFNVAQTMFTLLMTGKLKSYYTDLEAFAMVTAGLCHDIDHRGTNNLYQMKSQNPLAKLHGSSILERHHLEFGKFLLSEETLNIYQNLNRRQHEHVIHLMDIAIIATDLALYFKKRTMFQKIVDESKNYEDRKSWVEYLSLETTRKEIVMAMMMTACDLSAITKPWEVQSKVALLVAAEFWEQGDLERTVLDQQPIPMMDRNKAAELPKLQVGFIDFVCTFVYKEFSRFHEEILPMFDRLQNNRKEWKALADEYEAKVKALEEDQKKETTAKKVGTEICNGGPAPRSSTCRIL
Sequence of hERG channel (Q12809 whole entry): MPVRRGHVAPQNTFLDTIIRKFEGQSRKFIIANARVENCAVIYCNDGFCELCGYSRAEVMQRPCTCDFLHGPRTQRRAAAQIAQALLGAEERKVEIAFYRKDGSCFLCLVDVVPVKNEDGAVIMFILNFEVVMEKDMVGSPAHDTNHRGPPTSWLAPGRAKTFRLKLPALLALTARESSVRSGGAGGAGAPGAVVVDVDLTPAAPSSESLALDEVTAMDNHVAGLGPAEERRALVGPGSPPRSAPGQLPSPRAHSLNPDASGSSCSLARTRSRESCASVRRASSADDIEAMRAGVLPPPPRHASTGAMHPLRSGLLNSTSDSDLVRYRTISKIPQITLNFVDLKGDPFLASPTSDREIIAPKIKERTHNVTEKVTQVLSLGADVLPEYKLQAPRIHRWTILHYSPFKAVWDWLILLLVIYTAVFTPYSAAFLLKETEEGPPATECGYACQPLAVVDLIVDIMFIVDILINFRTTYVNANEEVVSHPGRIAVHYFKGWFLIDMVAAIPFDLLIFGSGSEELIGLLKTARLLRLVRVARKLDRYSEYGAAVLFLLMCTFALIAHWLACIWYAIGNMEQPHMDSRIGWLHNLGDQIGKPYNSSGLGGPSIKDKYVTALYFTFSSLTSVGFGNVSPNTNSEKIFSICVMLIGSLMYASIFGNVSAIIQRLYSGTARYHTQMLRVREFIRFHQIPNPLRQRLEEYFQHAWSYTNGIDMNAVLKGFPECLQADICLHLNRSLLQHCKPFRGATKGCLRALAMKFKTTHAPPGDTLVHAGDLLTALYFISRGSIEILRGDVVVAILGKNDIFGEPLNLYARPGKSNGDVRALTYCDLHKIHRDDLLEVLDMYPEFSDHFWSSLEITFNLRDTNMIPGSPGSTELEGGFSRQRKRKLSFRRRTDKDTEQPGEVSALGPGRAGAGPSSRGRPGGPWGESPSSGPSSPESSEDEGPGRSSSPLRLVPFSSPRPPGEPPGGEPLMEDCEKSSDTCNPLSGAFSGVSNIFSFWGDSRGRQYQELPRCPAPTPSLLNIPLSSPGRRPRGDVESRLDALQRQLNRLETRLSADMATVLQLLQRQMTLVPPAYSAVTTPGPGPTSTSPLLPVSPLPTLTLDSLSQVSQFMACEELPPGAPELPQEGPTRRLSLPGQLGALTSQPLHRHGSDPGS

For `CN1CC(=O)N2[C@H](c3ccc4c(c3)OCO4)c3[nH]c4ccccc4c3C[C@@H]2C1=O` [Tadalafil], the half-life [1] is given as “about 16 h”.
With `COc1ccc(CNc2nc(N3CC4CC4C3)ncc2C(=O)NCc2ccccc2)cc1Cl` (stereo not drawn) [Compound 3, N-benzyl-2-(3-azabicyclo[3.1.0]hexan-3-yl)-4-((3-chloro-4-methoxybenzyl)amino)pyrimidine-5-formamide] the pIC50 (PDE-5A enzyme) was 7.89, the pIC50 [2] was 9.04 and the IC50 (bovine retinal PDE-6 [3]) was 8.89 nM. The “selectivity on PDE-5 enzyme versus PDE-6 (in words)” value (“selectivity … (in words)” for short) (bovine retinal PDE-6 [4]) was “higher selectivity on PDE-5 enzyme than to PDE-6”, the “AUC of penis length” value [5] was 46.26 mm × min and the pIC50 (hERG channel) was less than 4.56. The “inhibitory effect on hERG channel (in words)” value (shortened to “inhibitory effect”) (hERG channel; [7]) was “none of Compound 3, 11 and 50 of the present invention had a significant inhibitory effect”.
`COc1ccc(CNc2nc(N3CC4CC4C3)ncc2C(=O)N[C@H]2CC[C@H](O)CC2)cc1C` (stereo partly drawn) [Compound 50, 2-(3-azabicyclo[3.1.0]hexan-3-yl)-N-((trans)-4-hydroxycyclohexyl)-4-((4-methoxy-3-methylbenzyl)amino)pyrimidine-5-formamide] showed a pIC50 [2] of 8.11, an IC50 [2] of 7.72 nM and a pIC50 (bovine retinal PDE-6 [3]) of 6.18. The IC50 (bovine retinal PDE-6 [3]) was 660 nM, the “Selectivity (PDE-6/PDE-5)” value (bovine retinal PDE-6 [4]) was 85 and the “selectivity … (in words)” value (bovine retinal PDE-6 [4]) was “higher selectivity on PDE-5 enzyme than to PDE-6”. For the same compound, the pIC50 (hERG channel) was less than 4.52, the “inhibitory effect” value (hERG channel; [7]) was “none of Compound 3, 11 and 50 of the present invention had a significant inhibitory effect” and the AUC(0-inf) [6, 8] was 4720 ng·h/mL. It also gave a Cmax [6, 8] of 377 ng/mL, a Tmax [6, 8] of 6 h and a half-life [6, 8] of 324 min. It also gave a bioavailability [6, 8] of 65%, an AUC(0-inf) ([6]; intravenous injection, 2 mg/kg) of 2580 ng·h/mL and a half-life ([6]; intravenous injection, 2 mg/kg) of 246 min. The Cl_obs ([6]; intravenous injection, 2 mg/kg) was 0.78 L/h/kg and the Vss_obs ([6]; intravenous injection, 2 mg/kg) was 4.48 L/kg.
For `COc1ccc(CNc2nc(N3CC4CC4C3)ncc2C(=O)N[C@H]2CC[C@H](O)CC2)cc1F` (stereo partly drawn) [Compound 48, 2-(3-azabicyclo[3.1.0]hexan-3-yl)-4-((3-fluoro-4-methoxybenzyl)amino)-N-(trans-4-hydroxycyclohexyl)pyrimidine-5-formamide], the pIC50 [2] was 8.10, the IC50 [2] was 7.99 nM and the pIC50 (bovine retinal PDE-6 [3]) was 5.95. For the same compound, the IC50 (bovine retinal PDE-6 [3]) was 1110 nM, the “Selectivity (PDE-6/PDE-5)” value (bovine retinal PDE-6 [4]) was 140 and the “selectivity … (in words)” value (bovine retinal PDE-6 [4]) was “higher selectivity on PDE-5 enzyme than to PDE-6”. The pIC50 (hERG channel) was 5.06, the “inhibitory effect” value (hERG channel) was “slight inhibitory effect” and the AUC(0-inf) [6, 8] was 2330 ng·h/mL. For the same compound, the Cmax [6, 8] was 415 ng/mL, the Tmax [6, 8] was 2 h and the half-life [6, 8] was 120 min. The bioavailability [6, 8] was 63%, the AUC(0-inf) ([6]; intravenous injection, 2 mg/kg) was 2060 ng·h/mL and the half-life ([6]; intravenous injection, 2 mg/kg) was 264 min. The Cl_obs ([6]; intravenous injection, 2 mg/kg) was 1.02 L/h/kg and the Vss_obs ([6]; intravenous injection, 2 mg/kg) was 4.59 L/kg.

Reference: patent US9359371B2, “Bicyclic substituted pyrimidine compounds” (Xuanzhu Pharma Co., Ltd., priority 2012, dated 2016)
